Consider 26 compounds from patent US20250304587A1, “WEE1 INHIBITOR, PREPARATION THEREFOR AND USE THEREOF” (JIANGSU TASLY DIYI PHARMACEUTICAL CO., LTD., priority 2022, published 2025).

A value given as a limit tells only on which side of the number the result lay.

One experiment deals with BxPC3 cells. Nature of the experiment: Cell Titer-Glo anti-proliferation, BxPC3 cells. It is filed as cell-based, human. Conditions: 3 days, read-out: Anti-proliferative activity BxPC3 (IC50 class). How it is done: (§1) A. Evaluation of the Anti-Proliferative Effect of Compounds on BxPC3, HT-29 and OVCAR-3 Cells by the Cell Titer-Glo Method
(§2) Compound solutions of different concentration gradients were prepared. […] The cell growth group without compound was used as a positive control (maximum signal control) and the medium was used as a negative control (minimum signal control), while ensuring that the final level of DMSO in each reaction well was 0.2%. After removing the medium from the 384-well plate, 25 μl of the configured compound at different concentrations was transferred into the well plate and the compound and cells were incubated in the cell incubator at 37° C. with 5% CO2 for 3 days.
(§3) The 384-well plates were removed from the cell incubator and allowed to equilibrate for 1 h to room temperature. 25 μl of Cell Titer-Glo assay was added to each well, lysed on a shaker for 2 min and then read out (Luminescence) using a BMG PHERAStar after 10 min incubation. Calculate the inhibition rate from the luminescence signal.
(§4) to calculate the rate of inhibition of the cells by different concentrations of the compounds. The IC50 of the compound on cell activity inhibition was calculated by fitting a log(inhibitor) vs. response-Variable slope model to GraphPad Prism 6. The fitted equation was: Y=Bottom+(Top-Bottom)/(1+10^((Log IC50−X)*HillSlope)), where Y represents the rate of inhibition and X represents the concentration of the known compound after Log.

A further experiment has as its system HT-29 cells. Nature of the experiment: Cell Titer-Glo anti-proliferation, HT-29 cells. It is filed as cell-based, human. The conditions noted are these: 3 days, read-out: Anti-proliferative activity HT-29 (IC50 class). How it is done:
as §1, §2, §3, §4

In another experiment the test system is OVCAR-3 cells. As to the kind of experiment: Cell Titer-Glo anti-proliferation, OVCAR-3 cells. It is filed as cell-based. The conditions noted are these: 3 days, read-out: Anti-proliferative activity OVCAR-3 (IC50 class). How it is done: as §1, §2, §3, §4
A general note: In ATP-based viability assays light output follows the ATP content of the culture.

What is called IC50 is the point on the concentration scale where inhibition reaches its midpoint. On to `C=CCn1c(=O)c2cnc(Nc3ccc(N4C[C@H]5CN(C)C[C@H]5C4)cc3)nc2n1-c1ccc2c(n1)C(C)(O)C1(CC2)CC1` (mixture of isomers) [Compound 43], for which the IC50 in the experiment on BxPC3 cells, in the experiment with HT-29 cells and in the experiment on OVCAR-3 cells was 100 to 1000 nM in each case.

Regarding `C=CCn1c(=O)c2cnc(Nc3ccc(N4C[C@@H](C)O[C@@H](C)C4)cc3)nc2n1-c1ccc2c(n1)[C@@](O)(CC)C1(CC1)C2` (single isomer, unassigned) [Compound 31b], the IC50 in the experiment on BxPC3 cells was in the range of 2000 to 5000 nM; with HT-29 cells, 2000 to 5000 nM; with OVCAR-3 cells it was 1000 to 2000 nM.

With `C=CCn1c(=O)c2cnc(Nc3ccc(N4CC5CN(C)CC5C4)cc3)nc2n1-c1ccc2c(n1)C(O)C1(CC2)CC1` (single isomer, unassigned) [Compound 63a], the 50% inhibitory concentration (IC50) with BxPC3 cells, in the experiment with HT-29 cells and with OVCAR-3 cells was 100 to 1000 nM throughout.

`C=CCn1c(=O)c2cnc(Nc3ccc(N4CC5CC(C4)N5C)cc3)nc2n1-c1ccc2c(n1)[C@](C)(O)C1(CC2)CC1` [Compound 7b]: the 50% inhibitory concentration (IC50) in the experiment with BxPC3 cells, in the experiment with HT-29 cells and with OVCAR-3 cells was 100 to 1000 nM in each case.

Take `C=CCn1c(=O)c2cnc(Nc3ccc(N4CCC(N(C)C)CC4)cc3)nc2n1-c1ccc2c(n1)C(O)C1(CC2)CC1` (single isomer, unassigned) [Compound 66a]: the results for the IC50 in the experiment with BxPC3 cells, with HT-29 cells and in the experiment on OVCAR-3 cells were 2000 to 5000 nM, 1000 to 2000 nM and 2000 to 5000 nM, respectively.

As for `C=CCn1c(=O)c2cnc(Nc3ccc(N4CCC(N(C)C)[C@H](F)C4)cc3)nc2n1-c1ccc2c(n1)C(C)(O)C1(CC2)CC1` (some centres unmarked) [Compound 60a], the concentration for half-maximal inhibition (IC50) in the experiment on BxPC3 cells, in the experiment with HT-29 cells and with OVCAR-3 cells was 100 to 1000 nM in each case.

For `C=CCn1c(=O)c2cnc(Nc3ccc(N4CCC(N(C)C)CC4)c(C)c3)nc2n1-c1ccc2c(n1)C(O)C1(CC2)CC1` (single isomer, unassigned) [Compound 41a], the IC50 in the experiment on BxPC3 cells was in the range of 1000 to 2000 nM; with HT-29 cells, 100 to 1000 nM; in the experiment on OVCAR-3 cells, 100 to 1000 nM.

For `C=CCn1c(=O)c2cnc(Nc3ccc(N4CCOCC4)cc3)nc2n1-c1ccc2c(n1)C(O)(CC)C1(CC1)C2` (racemic) [Compound 24], the IC50 in the experiment on BxPC3 cells, with HT-29 cells and with OVCAR-3 cells was 1000 to 2000 nM throughout.

On to `C=CCn1c(=O)c2cnc(Nc3ccc(N4CCC(N(C)C)CC4)c(C)c3)nc2n1-c1ccc2c(n1)[C@@](C)(O)C1(CC1)C2` (single isomer, unassigned) [Compound 42b], for which the IC50 in the experiment with BxPC3 cells, in the experiment with HT-29 cells and in the experiment with OVCAR-3 cells was 100 to 1000 nM each time.

Take `C=CCn1c(=O)c2cnc(Nc3ccc(N4CCC(N(C)C)[C@@H](F)C4)cc3)nc2n1-c1ccc2c(n1)[C@@](C)(O)C1(CC1)C2` (single isomer, unassigned) [Compound 20b]: the half-inhibitory concentration (IC50) with BxPC3 cells, with HT-29 cells and with OVCAR-3 cells was 1000 to 2000 nM each time.

As for `C=CCn1c(=O)c2cnc(Nc3ccc(N4CCC(N(C)C)CC4)cc3)nc2n1-c1ccc2c(n1)[C@](O)(C(F)(F)F)C1(CC2)CC1` (single isomer, unassigned) [Compound 54a], the figures for the half-maximal inhibitory concentration (IC50) in the experiment on BxPC3 cells, in the experiment on HT-29 cells and with OVCAR-3 cells were 2000 to 5000 nM, 1000 to 2000 nM and 2000 to 5000 nM, respectively.

With `C=CCn1c(=O)c2cnc(Nc3ccc(N4CC5CC(C4)N5C)c(OC)c3)nc2n1-c1ccc2c(n1)C(O)C1(CC2)CC1` (racemic) [Compound 49], the half-inhibitory concentration (IC50) in the experiment on BxPC3 cells, in the experiment on HT-29 cells and with OVCAR-3 cells was 2000 to 5000 nM in each case.

Consider `C=CCn1c(=O)c2cnc(Nc3ccc(N4C[C@@H]5C[C@H]4CN5C)cc3)nc2n1-c1ccc2c(n1)[C@@](C)(O)C1(CC2)CC1` (single isomer, unassigned) [Compound 45a], for which the IC50 in the experiment on BxPC3 cells lay in the range of 1000 to 2000 nM; in the experiment with HT-29 cells, 100 to 1000 nM; with OVCAR-3 cells, 100 to 1000 nM.

As to `C=CCn1c(=O)c2cnc(Nc3ccc(N4CCC5(CC4)CN(C)C5)cc3)nc2n1-c1ccc2c(n1)C(C)(O)C1(CC2)CC1` (racemic) [Compound 47], the half-maximal inhibitory concentration (IC50) with BxPC3 cells, in the experiment on HT-29 cells and in the experiment with OVCAR-3 cells was above 10000 nM throughout.

Regarding `C=CCn1c(=O)c2cnc(Nc3ccc(N4CCN(C)CC4)c(F)c3)nc2n1-c1ccc2c(n1)C(O)(CC)C1(CC1)C2` (centres unmarked) [Compound 33], the concentration for half-maximal inhibition (IC50) in the experiment on BxPC3 cells fell in the range of 2000 to 5000 nM; with HT-29 cells it was 1000 to 2000 nM; with OVCAR-3 cells, 2000 to 5000 nM.

For `C=CCn1c(=O)c2cnc(Nc3ccc(N4CCN(C)CC4)cc3)nc2n1-c1ccc2c(n1)N(CC)CC21CCC1` [Compound 16], the values for the IC50 in the experiment with BxPC3 cells and in the experiment with HT-29 cells were 1000 to 2000 nM and 100 to 1000 nM, respectively.

In the case of `C=CCn1c(=O)c2cnc(Nc3ccc(N4C[C@H]5C[C@@H]4CN5C)cc3)nc2n1-c1ccc2c(n1)C(O)(CC)C1(CC1)C2` (some centres unmarked) [Compound 26], the IC50 lay in the range of 2000 to 5000 nM in the experiment on BxPC3 cells, 1000 to 2000 nM in the experiment on HT-29 cells and 2000 to 5000 nM in the experiment on OVCAR-3 cells.

Regarding `C=CCn1c(=O)c2cnc(Nc3ccc(N4CCC5(CCN(C)CC5)CC4)c(C)c3)nc2n1-c1ccc2c(n1)C(O)C1(CC2)CC1` (single isomer, unassigned) [Compound 61a], the IC50 with BxPC3 cells, with HT-29 cells and in the experiment with OVCAR-3 cells was 100 to 1000 nM in each case.

`C=CCn1c(=O)c2cnc(Nc3ccc(N4CCC5(CCN(C)CC5)CC4)cc3)nc2n1-c1ccc2c(n1)[C@](O)(CC)C1(CC2)CC1` (single isomer, unassigned) [Compound 69a]: the half-maximal inhibitory concentration (IC50) with BxPC3 cells was in the range of 1000 to 2000 nM; with HT-29 cells, 100 to 1000 nM; in the experiment on OVCAR-3 cells, 100 to 1000 nM.

`C=CCn1c(=O)c2cnc(Nc3ccc(N4CC5CC(C4)N5C(C)C)cc3)nc2n1-c1ccc2c(n1)C(O)(CC)C1(CC2)CC1` (single isomer, unassigned) [Compound 36a]: the concentration for half-maximal inhibition (IC50) in the experiment on BxPC3 cells, in the experiment on HT-29 cells and in the experiment on OVCAR-3 cells was 100 to 1000 nM throughout.

For the compound `C=CCn1c(=O)c2cnc(Nc3ccc(N4CCC(N(C)C)CC4)c(C)c3)nc2n1-c1ccc2c(n1)[C@@H](O)C1(CC2)CC1` (single isomer, unassigned) [Compound 48a], the IC50 in the experiment with BxPC3 cells, in the experiment on HT-29 cells and in the experiment on OVCAR-3 cells was 100 to 1000 nM each time.

For `C=CCn1c(=O)c2cnc(Nc3ccc(N4CC5CC(C4)N5C(C)=O)cc3)nc2n1-c1ccc2c(n1)[C@](C)(O)C1(CC2)CC1` (single isomer, unassigned) [Compound 50b], the IC50 with BxPC3 cells, in the experiment on HT-29 cells and in the experiment on OVCAR-3 cells was 100 to 1000 nM in each case.

With `C=CCn1c(=O)c2cnc(Nc3ccc(N4CC5CC(C4)N5CC)cc3)nc2n1-c1ccc2c(n1)[C@](C)(O)C1(CC2)CC1` [Compound 51b], the half-maximal inhibitory concentration (IC50) in the experiment on BxPC3 cells fell in the range of 100 to 1000 nM.

Consider `C=CCn1c(=O)c2cnc(Nc3ccc(N4CCN(C)CC4)cc3)nc2n1-c1ccc2c(n1)C(C)(O)C1(CC2)CC1` (single isomer, unassigned) [Compound 6b], for which the results for the half-inhibitory concentration (IC50) with BxPC3 cells and in the experiment on HT-29 cells were 1000 to 2000 nM and 100 to 1000 nM, respectively.

As for `C=CCn1c(=O)c2cnc(Nc3ccc(N4CC5CC(C4)N5C)cc3)nc2n1-c1ccc2c(n1)C(O)C1(CC2)CC1` (single isomer, unassigned) [Compound 34a], the concentration for half-maximal inhibition (IC50) in the experiment on HT-29 cells was 100 to 1000 nM; in the experiment on OVCAR-3 cells it was 2000 to 5000 nM.

On to `C=CCn1c(=O)c2cnc(Nc3ccc(N4CCC5(CCN(C)CC5)CC4)cc3)nc2n1-c1ccc2c(n1)[C@](C)(O)C1(CC2)CC1` [Compound 44b], for which the IC50 in the experiment with BxPC3 cells was in the range of 100 to 1000 nM.
